Data from paper PMC5187517, “Pectocin M1 (PcaM1) Inhibits Escherichia coli Cell Growth and Peptidoglycan Biosynthesis through Periplasmic Expression” (Antibiotics, 2016).

Molecular target: T1, pectocin M1 (PcaM1) (Pectobacterium carotovorum, UniProt C6DJ69)
T1 construct: gene PC1_2303; full-length, C-terminal Arg-Ser-His6 tag kept, initiator Met lost; expressed in E. coli C43(DE3) from pMLD365; monomer; theoretical mass 30,401 Da with tag (observed m/z 30,266); plant-like ferredoxin domain plus cytotoxic domain
T1 sequence (C6DJ69 2-268): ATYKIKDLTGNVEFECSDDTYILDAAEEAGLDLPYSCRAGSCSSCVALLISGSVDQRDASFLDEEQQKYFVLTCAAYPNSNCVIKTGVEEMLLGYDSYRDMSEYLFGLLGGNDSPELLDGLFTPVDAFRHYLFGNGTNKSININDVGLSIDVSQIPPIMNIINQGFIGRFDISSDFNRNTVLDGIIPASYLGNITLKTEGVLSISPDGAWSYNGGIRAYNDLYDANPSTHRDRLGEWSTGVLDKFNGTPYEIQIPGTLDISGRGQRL
Assay: radiolabelled lipid II hydrolysis, TLC with radioactivity scanner
Format: biochemical
Conditions: labelled compound ([14C] in GlcNAc moiety); 100 mM Tris-HCl pH 7.5, 20 mM MgCl2, 150 mM NaCl, 10 mM 2-mercaptoethanol, 0.2% DDM, 37 °C, lipid II 6–100 µM

## CC(=O)N[C@H]1[C@H](O[C@H]2[C@H](O[C@H](C)C(=O)N[C@@H](C)C(=O)N[C@H](CCC(=O)N[C@@H](CCC[C@@H](N)C(=O)O)C(=O)N[C@H](C)C(=O)N[C@H](C)C(=O)O)C(=O)O)[C@@H](NC(C)=O)[C@@H](OP(=O)(O)OP(=O)(O)OC/C=C(/C)CC/C=C(/C)CC/C=C(/C)CC/C=C(/C)CC/C=C(/C)CC/C=C(/C)CC/C=C(/C)CC/C=C(/C)CC/C=C(\C)CC/C=C(\C)CCC=C(C)C)O[C@@H]2CO)O[C@H](CO)[C@@H](O)[C@@H]1O [lipid II, C55-PP-MurNAc(L-Ala-γ-D-Glu-meso-A2pm-D-Ala-D-Ala)-GlcNAc]
  Km: 55 µM
